A short description of this assay: Phosphodiesterase assay using fluorescence polarization with various metallic ion salts. The settings on record: FIG. 1B, 50 nM TAMRA-cGMP with PDE, 10 mM metal salt in 100 mM NaAc/HAc buffer pH 5.2 with 10 mM ZnSO4. Type of assay: binding. As to the method: After one hour of incubation, the fluorescence polarization was measured using Analyst reader (Molecular Devices).

Take `[Cl][Ga]([Cl])[Cl]` [GaCl3]: the “fluorescence signal, indicative of binding to the PDE product” value is reported as “able to show fluorescence signal”.

As for `[Cl-].[Cl-].[Cl-].[In+3]` [InCl3, indium chloride], the “fluorescence signal, indicative of binding to the PDE product” value is given as “able to show fluorescence signal”.

Values taken from patent publication US7901901B2, “Assays for measuring phosphate modification enzyme activity” (Roche Palo Alto LLC, priority 2006, dated 2011).
